# In patent EP2692352A1, “HOT FLASH SUPPRESSANT” (Shiseido Company, Ltd., priority 2011, dated 2014):
# Key:
# Apelin receptor APJ = assay: cAMP luciferase assay in APJ-expressing NIH3T3 cells (screening system for apelin-like agents); assay type: cell-based; conditions: FIG. 3
# Description: A cAMP luciferase reporter vector was transfected into a stable cell line, which was obtained by highly expressing Apelin receptor APJ in NIH3T3 cells, and then subjecting to selection with hygromycin (provided by Professor Nobuyuki Takakura of the Research Institute for Microbial Diseases of Osaka University), and these were used in the cAMP luciferase assay described below. Culturing was carried out in DMEM medium containing 10% FBS containing 200 µg/ml of hygromycin (Invitrogen). On the day before the assay, 2.0 x 10^5 cells were seeded into each well of a 96-well plate followed by culturing in DMEM medium containing 10% FBS and 200 µg/ml of hygromycin.
# After culturing overnight, the medium was removed by aspiration and replaced with 100 µl of additive-free DMEM per well. Three hours later, Glosensor™ cAMP Reagent (Promega) was added at 4 µl per well followed by equilibrating for 2 hours at room temperature under light blocking. Subsequently, apelin 13 (Peptide Institute) was diluted with additive-free DMEM medium to a concentration of 0.4 µg/ml and this was added at 50 µl per well (final concentration: 0.1 µg/ml) followed by incubating for 5 minutes at room temperature. […] Subsequently, luminescence was measured with the GloMax™ 96 Microplate Luminometer (Promega). […]
# menopausal mice = conditions: apelin highly expressed in epidermis (K14 promoter transgene, OVXTG) vs OVXWT; nifedipine 50 µg/kg i.p.; 10, 30 and 45 minutes; FIG. 1
# Description: Ovariectomy was performed on C57/BL6 mice highly expressing apelin in the epidermis under the control of a K14 promoter (herein after referred to as apelin-highly expressed mice, apelin TG or TG) and the corresponding wild-type mice (C57/BL6) (n=5, 8 to 10 week-old) to obtain menopausal mice highly expressing apelin and menopausal wild type mice. Furthermore, wild type mice that underwent sham surgery were used as a control. Four weeks later, nifedipine (50 µg/kg) was administered intraperitoneally as a vasodilator, and changes in tail temperature were analyzed using thermography (Thermo Tracer TH9011MR, NEC/Avio Infrared Technologies Co., Ltd.) at 10, 30 and 45 minutes after administration.
substance,measurement,setting,value
apelin,cAMP concentration,"Apelin receptor APJ; apelin 13 final concentration 0.1 µg/ml, forskolin final 10 µM, versus forskolin-only control",decreased
same,decreases in cAMP concentration in the presence of apelin neutralizing antibody,"Apelin receptor APJ; apelin final 0.5 µg/ml together with neutralizing antibody 4G5 at 1.5, 5, 15 and 50 µg/ml",suppressed
same,transient rises in body temperature (tail temperature) caused by hot flashes,menopausal mice,able to suppress or improve transient rises in body temperature caused by hot flashes in a short period of time
